Laboratory results taken from PubChem BioAssay AID1963420 (Molecular Pharmacology Branch, DTP, NCI, 2024).

Test system: 494315-158-R-J1-PDC complex spheroid growth, percent test/control
Experiment: Anticancer human tumor 494315-158-R-J1-PDC patient-derived soft tissue sarcoma cell line growth inhibition [Asc]
Details: for IC50: curve of first compound; for viability, T/C: stronger effect = lower value
Summary of the method: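 Concentration series start at each agent's clinical Cmax, or at 10 microM when none is established, and drop in half-log steps; agents are applied alone or together to complex spheroids built with HUVEC and hMSC.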

[1] = second compound 0.01 µM, first compound 0.0316 µM
[2] = second compound 0.01 µM, first compound 0.1 µM
[3] = second compound 0.01 µM, first compound 0.316 µM
[4] = second compound 0.01 µM, first compound 1 µM
[5] = second compound 0.01 µM, first compound 3.16 µM
[6] = second compound 0.01 µM, first compound 10 µM
[7] = second compound 0.0316 µM, first compound 0.0316 µM
[8] = second compound 0.0316 µM, first compound 0.1 µM
[9] = second compound 0.0316 µM, first compound 0.316 µM
[10] = second compound 0.0316 µM, first compound 1 µM
[11] = second compound 0.0316 µM, first compound 3.16 µM
[12] = second compound 0.0316 µM, first compound 10 µM
[13] = second compound 0.1 µM, first compound 0.0316 µM
[14] = second compound 0.1 µM, first compound 0.1 µM
[15] = second compound 0.1 µM, first compound 0.316 µM
[16] = second compound 0.1 µM, first compound 1 µM
[17] = second compound 0.1 µM, first compound 3.16 µM
[18] = second compound 0.1 µM, first compound 10 µM
[19] = second compound 0.316 µM, first compound 0.0316 µM
[20] = second compound 0.316 µM, first compound 0.1 µM
[21] = second compound 0.316 µM, first compound 0.316 µM
[22] = second compound 0.316 µM, first compound 1 µM
[23] = second compound 0.316 µM, first compound 3.16 µM
[24] = second compound 0.316 µM, first compound 10 µM
[25] = second compound 1 µM, first compound 0.0316 µM
[26] = second compound 1 µM, first compound 0.1 µM
[27] = second compound 1 µM, first compound 0.316 µM
[28] = second compound 1 µM, first compound 1 µM
[29] = second compound 1 µM, first compound 3.16 µM
[30] = second compound 1 µM, first compound 10 µM
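Note: compound exposure lasted seven days after spheroids formed for three days.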

| IC50 (second compound 0.01 µM) [µM] | IC50 (second compound 0.0316 µM) [µM] | IC50 (second compound 0.1 µM) [µM] | IC50 (second compound 0.316 µM) [µM] | IC50 (second compound 1 µM) [µM] | Compound | viability, T/C [1] [%] | viability, T/C [2] [%] | viability, T/C [3] [%] | viability, T/C [4] [%] | viability, T/C [5] [%] | viability, T/C [6] [%] | viability, T/C [7] [%] | viability, T/C [8] [%] | viability, T/C [9] [%] | viability, T/C [10] [%] | viability, T/C [11] [%] | viability, T/C [12] [%] | viability, T/C [13] [%] | viability, T/C [14] [%] | viability, T/C [15] [%] | also measured |
| --- | --- | --- | --- | --- | --- | --- | --- | --- | --- | --- | --- | --- | --- | --- | --- | --- | --- | --- | --- | --- | --- |
| > 10 | > 10 | > 10 | > 10 | < 0.0316 | C#Cc1c(F)ccc2cc(O)cc(-c3ncc4c(N5CC6CCC(C5)N6)nc(OCC56CCCN5CC(F)C6)nc4c3F)c12 (stereo not given) + CNC(C)C(=O)NC1CN(S(=O)(=O)c2cccc(S(=O)(=O)N3CCC4CCC(C(=O)NC(c5ccccc5)c5ccccc5)N4C(=O)C(NC(=O)C(C)NC)C3)c2)CCC2CCC(C(=O)NC(c3ccccc3)c3ccccc3)N2C1=O | 75.8 | 77.5 | 78.4 | 89.3 | 86.8 | 82 | 66.7 | 59.8 | 71.6 | 71.6 | 76.9 | 78 | 53.5 | 65.6 | 65.3 | viability, T/C [16]: 65.4%; viability, T/C [17]: 72.4%; viability, T/C [18]: 70.7%; viability, T/C [19]: 47.8%; viability, T/C [20]: 48.1%; viability, T/C [21]: 52.7%; viability, T/C [22]: 51.9%; viability, T/C [23]: 51.4%; viability, T/C [24]: 69.5%; viability, T/C [25]: 37.6%; viability, T/C [26]: 43.8%; viability, T/C [27]: 39.4%; viability, T/C [28]: 45.8%; viability, T/C [29]: 55.5%; viability, T/C [30]: 55.6% |
| 1.56 | 0.513 | 1.02 | < 0.0316 | < 0.0316 | C=C(F)C(=O)N1CCN(c2nc(OCC3CCCN3C)nc3c2CCN(c2cccc4cccc(Cl)c24)C3)CC1CC#N (stereo not given) + CNC(C)C(=O)NC1CN(S(=O)(=O)c2cccc(S(=O)(=O)N3CCC4CCC(C(=O)NC(c5ccccc5)c5ccccc5)N4C(=O)C(NC(=O)C(C)NC)C3)c2)CCC2CCC(C(=O)NC(c3ccccc3)c3ccccc3)N2C1=O | 68.7 | 70.6 | 61.5 | 62.9 | 30.8 | 0.15 | 51.8 | 56.5 | 46.2 | 48.5 | 20.6 | 0.13 | 50.7 | 48 | 52.3 | viability, T/C [16]: 51.7%; viability, T/C [17]: 18.9%; viability, T/C [18]: 0.11%; viability, T/C [19]: 44.9%; viability, T/C [20]: 43.4%; viability, T/C [21]: 38.8%; viability, T/C [22]: 45.7%; viability, T/C [23]: 12.8%; viability, T/C [24]: 0.11%; viability, T/C [25]: 34.3%; viability, T/C [26]: 39.9%; viability, T/C [27]: 36.7%; viability, T/C [28]: 39.8%; viability, T/C [29]: 8.22%; viability, T/C [30]: 0.18% |
